Source: publication PMC13168289, “Potent acridone antimalarial against all three life stages of Plasmodium” (Nature Communications, 2026)

Columns and labels:
[1] = cytotoxicity against HepG2 cells; type: cell-based; conditions: human, HepG2 cells; read-out: inhibition IC50 vs HepG2
Experimental: Cytotoxicity was evaluated in human HepG2 liver cells, using an MTT assay. Briefly, HepG2 cells were cultured in complete Dulbecco’s modified Eagle’s medium (DMEM; Gibco-Invitrogen, No. 11995-065) prepared by supplementing DMEM with 10% heat inactivated FBS (Gibco-Invitrogen, No. 16000-036), 100 units/mL penicillin, and 100 µg/mL streptomycin. Cell viability was assessed using trypan blue. Ninety-six-well plates were seeded with 2 × 10^4 cells per well and incubated at 37 °C overnight in a humidified 5% CO2 atmosphere. Test compound plates were prepared with an INTEGRA assist plus station and 96-well plates containing 11 duplicate 2-fold serial dilutions of test compound suspended in DMSO. The diluted test compound was then added to the corresponding well preseeded with HepG2 cells. […] After incubation, 20 µL of a 0.1 mg/mL solution of resazurin diluted in PBS was added to each well, and all plates were subsequently incubated for 3–4 h in an incubator. Absorbance was determined with the Molecular Devices SpectraMax plate reader. Three independent experiments, each in duplicate, were performed, and the IC50 values were determined using GraphPad Prism software (Version 10) using the non-linear regression equation (sigmoidal dose-response, variable slope).

[2] = maximum tolerated dose (MTD) study, single oral dose; type: in vivo, Sprague Dawley rats; conditions: oral gavage, male and female rats
Experimental: In vivo toxicology and TK studies in rats were performed at SRI International, using the well-established methods[83]–[85]. Rats were housed in microisolator cages with hardwood chip bedding (Sani-Chips; Envigo Teklad) and maintained on a 12 h light/dark cycle. Environmental conditions were controlled at 20–26 °C (68–79 °F) with 30–70% relative humidity. […] Male and female Sprague Dawley outbred rats were randomly assigned to treatment and control groups using a simple randomization procedure to ensure a balanced distribution of baseline weights across all cohorts. […] For TK studies, blood was collected from animals at 6 time points post dose on Day 1 (0.5, 1, 2, 4, 8, and 24 h) and on Day 7 (0.5, 2, 8, 24, 48, and 96 h). Drug levels were determined in collected plasma samples using bioanalytical method developed at SRI. The plasma drug level data were analyzed using Phoenix WinNonlin (version 8.3) software to perform noncompartmental data analysis.

O=C1C(O)=C([C@H]2CC[C@H](c3ccc(Cl)cc3)CC2)C(=O)c2ccccc21 [ATV, atovaquone]
IC50 at 24 h [1]: 61.2 µM

O=c1c2ccc(Oc3ccc(OC(F)(F)F)cc3)cc2[nH]c2cc(Cl)cc(F)c12 [T111]
single dose MTD [2]: greater than 400 mg/kg
